# Measured values published in US9089133B2, “Insecticide for agricultural or horticultural use and method of use thereof” (MITSUI CHEMICALS, INC., priority 2003, dated 2015).
# Key:
# [1] = test system: Diamondback Moth (Plutella xylostella); experiment: Insecticidal test for diamondback moth (cabbage leaf dip); format: in vivo; settings: foliar, 72 h, cabbage leaf immersed 30 seconds, 2nd-instar larvae, 25° C., three days after
# Description: Insecticidal Test for Diamondback Moth (Plutella xylostella)
# (§1) A cabbage leaf pieces was immersed in a solution prepared by diluting a test compound to a predetermined concentration for 30 seconds, and then dried in air. Then, the leaf piece was placed in a polyethylene cup of 7 cm-size in which 2nd-instar larvae of […] were placed. The cup was allowed to stand in a thermostatic chamber at 25° C. Three days after, the numbers of living and dead larvae were counted. The test was carried out in two replications each containing five larvae.
# [2] = test system: Common Cutworm (Spodoptera litura); experiment: Insecticidal test for common cutworm (cabbage leaf dip); format: in vivo; settings: foliar, 72 h, cabbage leaf immersed 30 seconds, 2nd-instar larvae, 25° C., three days after
# Description: Insecticidal Test for Common Cutworm (Spodoptera litura)
# as §1, with “cabbage leaf piece was immersed” for “cabbage leaf pieces was immersed”, “Then, the cabbage leaf piece” for “Then, the leaf piece”
structure (smiles),measurement,setting,value
"O=C(Nc1cccc(C(=O)Nc2ccc(C(F)(F)F)cc2C(F)(F)F)c1)OCC(F)(F)C(F)(F)F [Compound No. 250, N-(2,4-bistrifluoromethylphenyl) 3-[(2,2,3,3,3-pentafluoro-n-propyloxy)carbonylamino]benzamide]",mortality at 1000 ppm,[1],≥ 70%
same,mortality at 1000 ppm,[2],≥ 70%
